Reference: the supplement of paper PMC10331698
± gives the standard deviation of the averaged measurements.

Key:
Assay in all cases: level (log10 ratio to DMSO vehicle control); higher = higher biomarker level / cell amount than vehicle control
Details in all cases: in DMSO
[1] = compound: CNS(=O)(=O)C(F)(F)C(F)(F)C(F)(F)C(F)(F)C(F)(F)C(F)(F)C(F)(F)C(F)(F)F [N-Methylperfluorooctanesulfonamide]
Experimental: (§1)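 BioMAP Diversity Plus panel of 12 human primary cell co-culture systems (3C, 4H, LPS, SAg, BT, BF4T, BE3C, CASM3C, HDF3CGF, KF3CT, MyoF, Mphg). Compounds were added 1 h before stimulation and left for 24 h (MyoF 48 h; BT 72 h for soluble read-outs or 6 d for IgG). Biomarkers were read by ELISA, cytotoxicity by SRB, PBMC viability and proliferation by Alamar Blue. Each well value was divided by the mean of 8 DMSO control wells on the same plate and log10 transformed; duplicate blinded samples were tested at 4 concentrations.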

[2] = compound: O=S(=O)(O)C(F)(F)C(F)(F)C(F)(F)C(F)(F)C(F)(F)C(F)(F)C(F)(F)C(F)(F)F [Perfluorooctanesulfonic acid]
Experimental: as §1

[3] = compound: C=C(C)C(=O)OCC(F)(F)C(F)(F)C(F)(F)C(F)(F)C(F)(F)C(F)(F)C(F)(F)F
Experimental: as §1

[4] = compound: O=C(O)C(F)(F)C(F)(F)C(F)(F)C(F)(F)C(F)(F)C(F)(F)C(F)(F)C(F)(F)C(F)(F)C(F)(F)C(F)(F)C(F)(F)C(F)(F)F [Perfluorotetradecanoic acid]
Experimental: as §1

[5] = compound: CC(C)(C)C(=O)CC(=O)C(F)(F)C(F)(F)C(F)(F)F [(Heptafluorobutanoyl)pivaloylmethane]
Experimental: as §1

Hexafluoroglutaric acid = compound: O=C(O)C(F)(F)C(F)(F)C(F)(F)C(=O)O [Hexafluoroglutaric acid]
Experimental: as §1

[6] = compound: O=C(O)CCC(F)(F)C(F)(F)C(F)(F)C(F)(F)C(F)(F)F [2H,2H,3H,3H-Perfluorooctanoic acid]
Experimental: as §1

Test System | level (log10) ([1]; 6700 nM) | level (log10) ([1]; 20000 nM) | level (log10) ([1]; 60000 nM) | level (log10) ([2]; 6700 nM) | level (log10) ([2]; 20000 nM) | level (log10) ([2]; 60000 nM) | level (log10) ([3]; 6700 nM) | level (log10) ([3]; 20000 nM) | level (log10) ([4]; 6700 nM) | level (log10) ([4]; 20000 nM) | level (log10) ([5]; 6700 nM) | level (log10) ([5]; 20000 nM) | level (log10) ([5]; 60000 nM) | level (log10) (Hexafluoroglutaric acid; 6700 nM) | level (log10) (Hexafluoroglutaric acid; 20000 nM) | level (log10) (Hexafluoroglutaric acid; 60000 nM) | level (log10) ([6]; 6700 nM) | level (log10) ([6]; 20000 nM) | level (log10) ([6]; 60000 nM)
KF3CT:MMP-9 | 0.0055 ± 0.005 | -0.0495 ± 0.0035 | -0.098 ± 0.027 | -0.0195 ± 0.013 | -0.013 | -0.0705 ± 0.015 | 0.012 ± 0.03 | 0.009 ± 0.027 | -0.005 ± 0.0014 | 0.0065 ± 0.032 | -0.018 ± 0.0099 | -0.0175 ± 0.023 | -0.014 ± 0.041 | -0.001 ± 0.023 | 0.015 ± 0.021 | 0.005 ± 0.0099 | -0.0235 ± 0.021 | -0.018 ± 0.02 | 0.026 ± 0.0057
lMphg:CD62E/E-Selectin | -0.12 ± 0.034 | -0.214 ± 0.03 | -0.182 ± 0.058 | -0.0015 ± 0.023 | 0.0385 ± 0.013 | 0.186 ± 0.029 | -0.0215 ± 0.0021 | -0.021 ± 0.0042 | 0.0125 ± 0.03 | -0.006 ± 0.044 | -0.017 | -0.0085 ± 0.012 | -0.0525 ± 0.011 | -0.0065 ± 0.026 | 0.001 ± 0.02 | -0.0165 ± 0.043 | 0.0015 ± 0.035 | 0.0165 ± 0.0064 | 0.0415 ± 0.00071
MyoF:TIMP-1 | -0.0435 ± 0.00071 | -0.049 ± 0.034 | -0.0415 ± 0.005 | -0.002 ± 0.03 | 0.003 ± 0.0071 | 0.102 ± 0.0021 | 0.0225 ± 0.029 | 0.035 ± 0.017 | 0.0075 ± 0.049 | 0.0345 ± 0.013 | 0.0095 ± 0.028 | 0.0135 ± 0.06 | 0.009 ± 0.047 | 0.001 ± 0.014 | -0.0545 ± 0.053 | -0.0205 ± 0.0035 | -0.035 ± 0.088 | -0.0365 ± 0.087 | -0.0155 ± 0.071
HDF3CGF:M-CSF | 0.0055 ± 0.018 | 0.006 ± 0.025 | -0.001 ± 0.027 | 0.0225 ± 0.018 | 0.018 ± 0.013 | -0.075 ± 0.0042 | 0.009 ± 0.033 | 0.0245 ± 0.03 | 0.041 ± 0.038 | 0 ± 0.067 | 0.026 ± 0.014 | 0.03 ± 0.038 | 0 ± 0.028 | -0.0015 ± 0.013 | -0.006 ± 0.033 | -0.0285 ± 0.029 | -0.044 ± 0.089 | -0.067 ± 0.086 | -0.051 ± 0.12
3C:CCL2/MCP-1 | 0.0175 ± 0.0021 | 0.0235 ± 0.028 | 0.031 ± 0.034 | 0.0115 ± 0.0035 | -0.012 ± 0.0028 | -0.0065 ± 0.013 | -0.013 ± 0.0042 | 0.018 ± 0.025 | 0.0125 ± 0.012 | 0.0085 ± 0.018 | -0.0035 ± 0.0021 | -0.007 ± 0.018 | 0.0015 ± 0.043 | -0.0005 ± 0.0035 | 0.0095 ± 0.0035 | 0.028 ± 0.018 | 0.0045 ± 0.015 | 0.006 ± 0.034 | 0.01 ± 0.016
HDF3CGF:CD54/ICAM-1 | -0.002 ± 0.0028 | -0.0075 ± 0.019 | -0.0845 ± 0.0035 | -0.025 ± 0.013 | -0.0105 ± 0.00071 | -0.033 ± 0.014 | -0.008 ± 0.0085 | -0.01 ± 0.014 | -0.0015 ± 0.029 | -0.023 ± 0.033 | 0 ± 0.0057 | -0.0075 ± 0.013 | 0.0065 ± 0.00071 | 0.001 ± 0.018 | 0.0035 ± 0.013 | 0.004 ± 0.016 | -0.0095 ± 0.0064 | -0.0215 ± 0.019 | -0.036 ± 0.023
KF3CT:TIMP-2 | 0.0185 ± 0.0035 | 0.022 ± 0.024 | 0.008 ± 0.0028 | -0.01 ± 0.0014 | -0.0085 ± 0.016 | 0.0225 ± 0.025 | 0.0115 ± 0.018 | -0.0195 ± 0.0064 | 0.0455 ± 0.032 | 0.0065 ± 0.012 | 0.001 ± 0.021 | 0.002 ± 0.014 | -0.015 ± 0.0014 | -0.026 ± 0.014 | -0.028 ± 0.0042 | -0.013 ± 0.011 | -0.011 | -0.02 ± 0.024 | 0.015 ± 0.0099
MyoF:bFGF | 0 ± 0.014 | -0.0085 ± 0.033 | 0.005 ± 0.033 | -0.004 | -0.0185 ± 0.028 | -0.0125 ± 0.018 | 0.005 ± 0.016 | 0.015 ± 0.025 | 0.0075 ± 0.00071 | 0.0315 ± 0.018 | 0.002 ± 0.0028 | 0.0065 ± 0.0035 | 0.021 ± 0.0071 | 0.01 ± 0.014 | 0.0105 ± 0.013 | 0.017 ± 0.0014 | -0.013 ± 0.017 | -0.011 ± 0.0085 | -0.008 ± 0.021
CASM3C:HLA-DR | -0.0525 ± 0.039 | -0.0875 ± 0.011 | -0.0315 ± 0.079 | -0.0365 ± 0.012 | -0.0465 ± 0.016 | -0.0395 ± 0.052 | -0.015 ± 0.017 | -0.0125 ± 0.0021 | -0.0195 ± 0.0078 | -0.022 ± 0.073 | 0.011 ± 0.0014 | 0.0005 ± 0.0092 | 0.0255 ± 0.0035 | 0.0165 ± 0.049 | -0.015 ± 0.045 | 0.0055 ± 0.019 | 0.004 ± 0.0057 | -0.026 ± 0.021 | -0.014
BE3C:SRB | -0.0085 ± 0.00071 | -0.014 ± 0.0085 | 0.0005 ± 0.029 | -0.0095 ± 0.0064 | -0.2205 ± 0.00071 | -0.371 ± 0.016 | -0.0015 ± 0.0021 | -0.0025 ± 0.00071 | -0.005 ± 0.0057 | 0.0035 ± 0.012 | -0.0035 ± 0.0035 | -0.0035 ± 0.00071 | -0.0075 ± 0.019 | 0.0035 ± 0.0035 | -0.005 | 0.0125 ± 0.012 | 0.003 ± 0.0028 | -0.0015 ± 0.005 | 0.012 ± 0.018
HDF3CGF:MMP-1 | -0.008 ± 0.016 | -0.005 ± 0.011 | 0.0005 ± 0.013 | -0.0145 ± 0.0064 | -0.016 ± 0.0014 | 0.0085 ± 0.015 | -0.003 ± 0.02 | -0.0045 ± 0.026 | -0.044 ± 0.016 | -0.019 ± 0.0071 | 0.006 ± 0.0071 | -0.002 ± 0.0014 | 0.01 ± 0.024 | 0.0195 ± 0.0092 | 0.002 ± 0.02 | -0.0045 ± 0.021 | -0.009 ± 0.023 | -0.0385 ± 0.05 | -0.0675 ± 0.076
HDF3CGF:PAI-I | 0.051 ± 0.0028 | 0.0455 ± 0.019 | 0.063 ± 0.02 | 0.006 | 0.0125 ± 0.011 | -0.0015 ± 0.025 | 0.011 ± 0.0099 | 0.0095 ± 0.019 | 0.0475 ± 0.023 | 0.0405 ± 0.021 | 0.011 ± 0.016 | 0.0255 ± 0.00071 | 0.0685 ± 0.049 | -0.0115 ± 0.016 | -0.007 ± 0.014 | 0.0075 ± 0.021 | 0.0145 ± 0.016 | -0.004 ± 0.011 | -0.0085 ± 0.0078
BE3C:PAI-I | -0.157 ± 0.013 | -0.162 ± 0.029 | -0.138 ± 0.025 | -0.006 ± 0.0014 | -0.195 ± 0.0028 | -0.301 ± 0.0035 | 0.0055 ± 0.0078 | 0.0105 ± 0.018 | 0.007 ± 0.058 | -0.0175 ± 0.064 | -0.028 ± 0.068 | -0.009 ± 0.083 | -0.0145 ± 0.1 | -0.0205 ± 0.016 | -0.014 ± 0.027 | 0.002 ± 0.03 | -0.0035 ± 0.0064 | 0.027 ± 0.011 | 0.044 ± 0.0057
CASM3C:CD106/VCAM-1 | -0.088 ± 0.044 | -0.14 ± 0.061 | -0.0895 ± 0.06 | -0.035 ± 0.0028 | -0.038 ± 0.016 | -0.104 ± 0.041 | 0.011 ± 0.0014 | -0.0155 ± 0.046 | -0.023 ± 0.041 | -0.0065 ± 0.073 | -0.006 ± 0.014 | -0.004 ± 0.021 | -0.002 ± 0.03 | -0.0105 ± 0.03 | -0.0125 ± 0.036 | 0.012 ± 0.011 | 0.0025 ± 0.019 | 0.0115 ± 0.044 | 0.01 ± 0.018
